Laboratory results published in publication PMC8632988, “Inhibition of SYK and cSrc kinases can protect bone and cartilage in preclinical models of osteoarthritis and rheumatoid arthritis” (Scientific Reports, 2021).
Values joined by “and” are separate entries in the source; they are usually repeats but may differ in a detail not shown here. Equal entries are not always repeated.

System: DBA/1 mice, CIA model
Assay: Collagen-induced arthritis model in mice
Format: in vivo, mouse
Parameters: Total AUC Sum (d1-11) / Total AUC Sum (d1-11), Mean: scale not given here
Description: Collagen-induced arthritis (CIA) model was performed at Bolder BioPATH, USA. Study design and animal usage was approved by Bolder BioPATH’s Institutional Animal Care and Use Committee. CIA was induced in 6–7 week old male DBA/1 mice with body weight of 15–26 g (Harlan, Inc) by intradermal injection of Freund’s Complete Adjuvant (Difco) containing bovine type II collagen (Bolder BioPATH) on day 0 and again on day 21 according to the standard protocol. […] After that mice were randomized into six groups: a control group of four, vehicle group and four treatment groups of ten mice each. […] Each paw was scored daily for inflammation. Therapeutic and prophylactic paws were considered. At study termination mice were euthanized by CO2 inhalation followed by cervical dislocation. Fore paws, hind paws, and knees were removed for microscopy.
Mice were weighed on arthritis days 1, 3, 5, 7, 9, and 11 (prior to necropsy). Daily clinical scores were given for each of the paws (right front, left front, right rear, left rear) on days 1–11 using the following criteria:
After 1–2 days in fixative and 4–5 days in 5% formic acid for decalcification, tissues were trimmed, processed for paraffin embedding, sectioned at 8 µm and stained with toluidine blue. Hind paws and knees were embedded and sectioned in the frontal plane. Two joints from each animal were processed for histopathology evaluation. The joints were then scored by two independent readers as indicated below. When scoring, severity of changes as well as number of individual joints affected were considered. When only 1–3 joints of the paws or ankles out of a possibility of numerous metacarpal/metatarsal/digit or tarsal/tibiotarsal joints were affected, an arbitrary assignment of a maximum score of 1, 2 or 3 for parameters below was given depending on severity of changes. If more than 3 joints were involved, the criteria below were applied to the most severely affected/majority of joints.

[1] = all joints, MT-SYK-03 103 mg/kg PO, BID (Group 4)
[2] = all joints, MT-SYK-03 103 mg/kg PO, BID (Group 4), group mean
[3] = all joints, MT-SYK-03 103 mg/kg PO, BID (Group 4), individual animals, 103 mg/kg

COc1cc(Nc2ncnc(Nc3cc4c(cn3)NC(=O)C(C)(C)O4)n2)cc(OC)c1OC [MT-SYK-03]
% inhibition to Vehicle, Summed Prophylactic (Non-Enrollment) Paw Score (MT-SYK-03 103 mg/kg PO, BID, Day 11): 17% | Summed Prophylactic (Non-Enrollment) Paw Score (MT-SYK-03 103 mg/kg PO, BID, Day 11, group mean): 7.30 | Summed Prophylactic (Non-Enrollment) Paw Score (MT-SYK-03 103 mg/kg PO, BID, Day 11, individual animals, 103 mg/kg): 9 and 3 and 12 and 8 and 2 and 10 and 7 and 5 | Total AUC Sum (d1-11), Prophylactic (Non-Enrollment) Paw Score (MT-SYK-03 103 mg/kg PO, BID, group mean): 54.15 | Total AUC Sum (d1-11), Prophylactic (Non-Enrollment) Paw Score (MT-SYK-03 103 mg/kg PO, BID, individual animals, 103 mg/kg): 67.5 and 27.5 and 71.0 and 61.0 and 12.0 and 80.0 and 70.5 and 51.5 and 63.0 and 37.5 | % inhibition, Bone Resorption score [1]: 29% | % inhibition, Cartilage Damage score [1]: 17% | % inhibition, Inflammation score [1]: 7% | % inhibition, Pannus score [1]: 29% | % inhibition, Periosteal Bone Formation score [1]: 18% | % inhibition, Periosteal Bone Width [1]: 20% | % inhibition, Summed Scores [1]: 18% | Histopathology Scores Bone Resorption, Mean [2]: 1.23 | Histopathology Scores Cartilage Damage, Mean [2]: 2.74 | Histopathology Scores Inflammation, Mean [2]: 3.44 | Histopathology Scores Pannus, Mean [2]: 1.23 | Histopathology Scores Periosteal Bone Formation, Mean [2]: 0.93 | Histopathology Scores Summed Scores, Mean [2]: 9.58 | Periosteal Bone Width (40*25x measure), Mean [2]: 79.33 μm | Histopathology Scores Bone Resorption [3]: 0.83 and 0.75 and 1.17 and 1.92 and 1.42 and 2.00 and 1.75 and 0.33 | Histopathology Scores Cartilage Damage [3]: 2.33 and 2.00 and 2.58 and 4.00 and 1.67 and 2.75 and 4.17 and 3.25 and 0.67 | Histopathology Scores Inflammation [3]: 2.83 and 3.17 and 3.83 and 4.67 and 1.92 and 3.42 and 4.50 and 4.33 | Histopathology Scores Pannus [3]: 0.83 and 0.75 and 1.17 and 1.92 and 1.42 and 2.00 and 1.75 and 0.33 | Histopathology Scores Periosteal Bone Formation [3]: 0.67 and 1.17 and 1.33 and 0.33 and 1.67 and 0.83 | Histopathology Scores Summed Scores [3]: 7.50 and 7.33 and 9.92 and 13.83 and 5.42 and 10.17 and 11.58 and 12.67 and 3.58 | Periosteal Bone Width (40*25x measure) [3]: 40.00 μm and 53.33 μm and 106.67 μm and 120.00 μm and 33.33 μm and 86.67 μm and 140.00 μm and 80.00 μm and 26.67 μm | Histopathology scores for knee and ankle joints (murine CIA): decreased histopathology scores | Periosteal bone width of paw and knee joints (murine CIA): slightly decreased | Cartilage damage, bone resorption and inflammation in knees (microphotographs) (murine CIA, 103 mg/kg oral): decreasing of cartilage damage, bone resorption and inflammation in knees | Clinical arthritis score (severity of inflammation) (murine CIA, MT-SYK-03 103 mg/kg oral): reduced the severity of inflammation | % inhibition to Vehicle, Total AUC Sum (d1-11) (therapeutic/enrollment paw score, MT-SYK-03 103 mg/kg PO, BID (Group 4)): 6% | Total AUC Sum (d1-11), Mean (therapeutic/enrollment paw score, MT-SYK-03 103 mg/kg PO, BID (Group 4), group mean): 59.75 | Total AUC Sum (d1-11) (therapeutic/enrollment paw score, MT-SYK-03 103 mg/kg PO, BID (Group 4), individual animals, 103 mg/kg): 79 and 81 and 73 and 33 and 42 and 102 and 83 and 38 and 36 | % inhibition to Vehicle, paw score Day 1 (therapeutic/enrollment paws, Day 1, MT-SYK-03 103 mg/kg PO, BID (Group 4)): 0% | Average Paw Score Per Arthritis Day, Day 1, Mean (therapeutic/enrollment paws, Day 1, MT-SYK-03 103 mg/kg PO, BID (Group 4), group mean): 3.20 | Average Paw Score Per Arthritis Day, Day 1 (therapeutic/enrollment paws, Day 1, MT-SYK-03 103 mg/kg PO, BID (Group 4), individual animals, 103 mg/kg): 4 and 2 and 6 | % inhibition to Vehicle, paw score Day 2 (therapeutic/enrollment paws, Day 2, MT-SYK-03 103 mg/kg PO, BID (Group 4)): 19% | Average Paw Score Per Arthritis Day, Day 2, Mean (therapeutic/enrollment paws, Day 2, MT-SYK-03 103 mg/kg PO, BID (Group 4), group mean): 3.80 | Average Paw Score Per Arthritis Day, Day 2 (therapeutic/enrollment paws, Day 2, MT-SYK-03 103 mg/kg PO, BID (Group 4), individual animals, 103 mg/kg): 4 and 6 and 2 and 3 | % inhibition to Vehicle, paw score Day 3 (therapeutic/enrollment paws, Day 3, MT-SYK-03 103 mg/kg PO, BID (Group 4)): 8% | Average Paw Score Per Arthritis Day, Day 3, Mean (therapeutic/enrollment paws, Day 3, MT-SYK-03 103 mg/kg PO, BID (Group 4), group mean): 5.40 | Average Paw Score Per Arthritis Day, Day 3 (therapeutic/enrollment paws, Day 3, MT-SYK-03 103 mg/kg PO, BID (Group 4), individual animals, 103 mg/kg): 6 and 8 and 3 and 4 and 9 | % inhibition to Vehicle, paw score Day 4 (therapeutic/enrollment paws, Day 4, MT-SYK-03 103 mg/kg PO, BID (Group 4)): 6% | Average Paw Score Per Arthritis Day, Day 4, Mean (therapeutic/enrollment paws, Day 4, MT-SYK-03 103 mg/kg PO, BID (Group 4), group mean): 5.80 | Average Paw Score Per Arthritis Day, Day 4 (therapeutic/enrollment paws, Day 4, MT-SYK-03 103 mg/kg PO, BID (Group 4), individual animals, 103 mg/kg): 7 and 8 and 6 and 4 and 10 and 3 | % inhibition to Vehicle, paw score Day 5 (therapeutic/enrollment paws, Day 5, MT-SYK-03 103 mg/kg PO, BID (Group 4)): 6% | Average Paw Score Per Arthritis Day, Day 5, Mean (therapeutic/enrollment paws, Day 5, MT-SYK-03 103 mg/kg PO, BID (Group 4), group mean): 6.20 | Average Paw Score Per Arthritis Day, Day 5 (therapeutic/enrollment paws, Day 5, MT-SYK-03 103 mg/kg PO, BID (Group 4), individual animals, 103 mg/kg): 8 and 7 and 4 and 11 and 3 and 9 | % inhibition to Vehicle, paw score Day 6 (therapeutic/enrollment paws, Day 6, MT-SYK-03 103 mg/kg PO, BID (Group 4)): 5% | Average Paw Score Per Arthritis Day, Day 6, Mean (therapeutic/enrollment paws, Day 6, MT-SYK-03 103 mg/kg PO, BID (Group 4), group mean): 6.30 | Average Paw Score Per Arthritis Day, Day 6 (therapeutic/enrollment paws, Day 6, MT-SYK-03 103 mg/kg PO, BID (Group 4), individual animals, 103 mg/kg): 8 and 4 and 11 and 3 and 9 | % inhibition to Vehicle, paw score Day 7 (therapeutic/enrollment paws, Day 7, MT-SYK-03 103 mg/kg PO, BID (Group 4)): 3% | Average Paw Score Per Arthritis Day, Day 7, Mean (therapeutic/enrollment paws, Day 7, MT-SYK-03 103 mg/kg PO, BID (Group 4), group mean): 6.60 | Average Paw Score Per Arthritis Day, Day 7 (therapeutic/enrollment paws, Day 7, MT-SYK-03 103 mg/kg PO, BID (Group 4), individual animals, 103 mg/kg): 9 and 8 and 4 and 11 | % inhibition to Vehicle, paw score Day 8 (therapeutic/enrollment paws, Day 8, MT-SYK-03 103 mg/kg PO, BID (Group 4)): 3% | Average Paw Score Per Arthritis Day, Day 8, Mean (therapeutic/enrollment paws, Day 8, MT-SYK-03 103 mg/kg PO, BID (Group 4), group mean): 6.80 | Average Paw Score Per Arthritis Day, Day 8 (therapeutic/enrollment paws, Day 8, MT-SYK-03 103 mg/kg PO, BID (Group 4), individual animals, 103 mg/kg): 10 and 9 and 3 and 5 and 11 and 4 | % inhibition to Vehicle, paw score Day 9 (therapeutic/enrollment paws, Day 9, MT-SYK-03 103 mg/kg PO, BID (Group 4)): 5% | Average Paw Score Per Arthritis Day, Day 9, Mean (therapeutic/enrollment paws, Day 9, MT-SYK-03 103 mg/kg PO, BID (Group 4), group mean): 6.90 | Average Paw Score Per Arthritis Day, Day 9 (therapeutic/enrollment paws, Day 9, MT-SYK-03 103 mg/kg PO, BID (Group 4), individual animals, 103 mg/kg): 10 and 9 and 3 and 5 and 12 and 4 | % inhibition to Vehicle, paw score Day 10 (therapeutic/enrollment paws, Day 10, MT-SYK-03 103 mg/kg PO, BID (Group 4)): 7% | Average Paw Score Per Arthritis Day, Day 10, Mean (therapeutic/enrollment paws, Day 10, MT-SYK-03 103 mg/kg PO, BID (Group 4), group mean): 6.90 | Average Paw Score Per Arthritis Day, Day 10 (therapeutic/enrollment paws, Day 10, MT-SYK-03 103 mg/kg PO, BID (Group 4), individual animals, 103 mg/kg): 10 and 9 and 3 and 5 and 12 and 4 | % inhibition to Vehicle, paw score Day 11 (therapeutic/enrollment paws, Day 11, MT-SYK-03 103 mg/kg PO, BID (Group 4)): 7% | Average Paw Score Per Arthritis Day, Day 11, Mean (therapeutic/enrollment paws, Day 11, MT-SYK-03 103 mg/kg PO, BID (Group 4), group mean): 6.90 | Average Paw Score Per Arthritis Day, Day 11 (therapeutic/enrollment paws, Day 11, MT-SYK-03 103 mg/kg PO, BID (Group 4), individual animals, 103 mg/kg): 10 and 9 and 3 and 5 and 12 and 4
